From ChEMBL document CHEMBL5303573, “Mapping human microbiome drug metabolism by gut bacteria and their genes” (Nature, 2019)

Columns and labels:
[1] = The drug is tested on Eubacterium ventriosum strain: ATCC27560 for biotransformation. The drug concentrations were measured before and after a 12-h incubation by liquid-chromatography-coupled mass spectrometry (LC–MS); type: ADME; parameters: dose 2 uM, timepoint 0 vs 12 hours; conditions: 2 µM
[2] = The drug is tested on Bacteroides sp. WH2 strain: WH2 for biotransformation. The drug concentrations were measured before and after a 12-h incubation by liquid-chromatography-coupled mass spectrometry (LC–MS); conditions: bacteroides sp. wh2, 12 h, 2 µM
[3] = bacteroides fragilis, 12 h, 2 µM
Description: The drug is tested on Bacteroides fragilis strain: NCTC 9343 for biotransformation. The drug concentrations were measured before and after a 12-h incubation by liquid-chromatography-coupled mass spectrometry (LC–MS)

[4] = The drug is tested on Odoribacter splanchnicus strain: fecal isolate for biotransformation. The drug concentrations were measured before and after a 12-h incubation by liquid-chromatography-coupled mass spectrometry (LC–MS); conditions: 2 µM
[5] = The drug is tested on Ruminococcus lactaris strain: ATCC29176 for biotransformation. The drug concentrations were measured before and after a 12-h incubation by liquid-chromatography-coupled mass spectrometry (LC–MS); conditions: 2 µM
[6] = target: T1, Acyltransferase 3 domain-containing protein (Phocaeicola dorei, UniProt B6W2J3); test: (§1) The drug is tested on Bacteroides dorei strain: DSM17855 for biotransformation. The drug concentrations were measured before and after a 12-h incubation by liquid-chromatography-coupled mass spectrometry (LC–MS); type: ADME; parameters: dose 2 uM; conditions: 2 µM
T1 sequence (B6W2J3 whole entry): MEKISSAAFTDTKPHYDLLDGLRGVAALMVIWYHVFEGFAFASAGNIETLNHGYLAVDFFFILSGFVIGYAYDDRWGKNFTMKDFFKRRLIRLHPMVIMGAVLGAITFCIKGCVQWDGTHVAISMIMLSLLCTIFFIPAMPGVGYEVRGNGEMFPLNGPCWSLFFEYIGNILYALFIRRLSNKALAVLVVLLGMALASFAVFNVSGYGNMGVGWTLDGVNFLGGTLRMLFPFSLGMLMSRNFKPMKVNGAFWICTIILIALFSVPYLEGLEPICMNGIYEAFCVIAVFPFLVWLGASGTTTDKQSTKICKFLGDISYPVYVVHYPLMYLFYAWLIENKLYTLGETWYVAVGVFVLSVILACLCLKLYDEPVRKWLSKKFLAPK

[7] = target: T2, SGNH hydrolase-type esterase domain-containing protein (Phocaeicola dorei, UniProt B6VTE7); test: as §1; type: ADME; parameters: dose 2 uM; conditions: 2 µM
T2 sequence (B6VTE7 whole entry): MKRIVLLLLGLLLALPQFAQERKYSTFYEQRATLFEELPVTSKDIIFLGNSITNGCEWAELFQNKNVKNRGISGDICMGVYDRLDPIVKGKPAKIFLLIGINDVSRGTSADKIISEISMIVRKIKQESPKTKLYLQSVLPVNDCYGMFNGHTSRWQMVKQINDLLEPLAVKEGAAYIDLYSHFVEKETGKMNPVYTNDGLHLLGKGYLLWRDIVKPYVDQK

[8] = target: T3, SGNH hydrolase-type esterase domain-containing protein (Phocaeicola dorei, UniProt B6W1J1); test: as §1; type: ADME; parameters: dose 2 uM; conditions: 2 µM
T3 sequence (B6W1J1 whole entry): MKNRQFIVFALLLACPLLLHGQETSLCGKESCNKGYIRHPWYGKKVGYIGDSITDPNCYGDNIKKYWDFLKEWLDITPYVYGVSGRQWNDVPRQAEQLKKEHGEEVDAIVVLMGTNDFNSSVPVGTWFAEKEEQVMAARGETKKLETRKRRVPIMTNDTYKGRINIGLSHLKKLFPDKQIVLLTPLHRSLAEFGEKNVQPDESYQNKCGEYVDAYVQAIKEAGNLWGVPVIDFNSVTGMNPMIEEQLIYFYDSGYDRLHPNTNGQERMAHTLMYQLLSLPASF

[9] = target: T4, Nitroreductase domain-containing protein (Phocaeicola dorei, UniProt B6VU18); test: as §1; type: ADME; parameters: dose 2 uM; conditions: 2 µM
T4 sequence (B6VU18 whole entry): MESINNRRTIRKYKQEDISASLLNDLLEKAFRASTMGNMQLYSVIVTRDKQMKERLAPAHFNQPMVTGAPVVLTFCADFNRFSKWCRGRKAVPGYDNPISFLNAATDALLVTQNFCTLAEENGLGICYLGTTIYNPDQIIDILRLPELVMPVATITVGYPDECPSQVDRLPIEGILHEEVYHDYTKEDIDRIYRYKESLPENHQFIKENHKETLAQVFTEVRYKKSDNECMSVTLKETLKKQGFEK

[10] = target: T5, SGNH hydrolase-type esterase domain-containing protein (Phocaeicola dorei, UniProt B6W293); test: as §1; type: ADME; parameters: dose 2 uM; conditions: 2 µM
T5 sequence (B6W293 whole entry): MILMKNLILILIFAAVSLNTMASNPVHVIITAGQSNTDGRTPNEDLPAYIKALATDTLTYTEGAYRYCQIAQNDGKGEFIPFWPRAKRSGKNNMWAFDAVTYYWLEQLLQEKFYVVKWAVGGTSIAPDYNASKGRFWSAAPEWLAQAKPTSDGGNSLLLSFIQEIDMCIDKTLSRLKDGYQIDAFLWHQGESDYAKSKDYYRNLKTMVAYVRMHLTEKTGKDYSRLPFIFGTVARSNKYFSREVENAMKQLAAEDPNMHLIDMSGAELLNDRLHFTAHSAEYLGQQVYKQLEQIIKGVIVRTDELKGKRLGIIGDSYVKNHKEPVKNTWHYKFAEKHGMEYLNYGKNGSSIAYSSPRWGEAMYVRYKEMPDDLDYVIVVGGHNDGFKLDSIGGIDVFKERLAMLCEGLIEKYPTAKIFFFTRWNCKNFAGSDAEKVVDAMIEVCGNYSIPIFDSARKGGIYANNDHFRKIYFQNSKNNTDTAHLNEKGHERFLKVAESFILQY

[11] = target: T6, Nitroreductase domain-containing protein (Phocaeicola dorei, UniProt B6W3P3); test: as §1; type: ADME; parameters: dose 2 uM; conditions: 2 µM
T6 sequence (B6W3P3 whole entry): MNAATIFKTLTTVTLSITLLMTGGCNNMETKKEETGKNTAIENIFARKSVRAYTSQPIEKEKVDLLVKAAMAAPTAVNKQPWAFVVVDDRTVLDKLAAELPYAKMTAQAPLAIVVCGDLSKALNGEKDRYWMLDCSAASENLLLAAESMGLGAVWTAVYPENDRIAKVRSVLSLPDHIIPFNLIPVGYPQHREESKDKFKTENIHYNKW

Esterase = target: T7, Esterase (Phocaeicola dorei, UniProt B6W2J6); test: as §1; type: ADME; parameters: dose 2 uM; conditions: 2 µM
T7 sequence (B6W2J6 whole entry): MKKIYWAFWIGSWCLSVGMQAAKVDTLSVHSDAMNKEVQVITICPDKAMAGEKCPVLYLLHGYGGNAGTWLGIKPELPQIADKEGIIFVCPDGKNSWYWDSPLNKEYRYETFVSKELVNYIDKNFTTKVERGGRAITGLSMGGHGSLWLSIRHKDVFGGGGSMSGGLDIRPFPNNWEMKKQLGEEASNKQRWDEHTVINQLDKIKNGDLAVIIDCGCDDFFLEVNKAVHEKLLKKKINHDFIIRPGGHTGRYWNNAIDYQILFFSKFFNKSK

[12] = The drug is tested on Alistipes indistinctus strain: DSM22520 for biotransformation. The drug concentrations were measured before and after a 12-h incubation by liquid-chromatography-coupled mass spectrometry (LC–MS); conditions: 2 µM
[13] = akkermansia muciniphila, 12 h, 2 µM
Description: The drug is tested on Akkermansia muciniphila strain: ATCC BAA-835 for biotransformation. The drug concentrations were measured before and after a 12-h incubation by liquid-chromatography-coupled mass spectrometry (LC–MS)

[14] = The drug is tested on Clostridium hathewayi strain: DSM13479 for biotransformation. The drug concentrations were measured before and after a 12-h incubation by liquid-chromatography-coupled mass spectrometry (LC–MS); conditions: hungatella hathewayi, 2 µM

Bacterial Biotransformation [1]	Bacterial Biotransformation [2]	Bacterial Biotransformation [3]	Bacterial Biotransformation [4]	Bacterial Biotransformation [5]	Bacterial Biotransformation [6]	Bacterial Biotransformation [7]	Bacterial Biotransformation [8]	Bacterial Biotransformation [9]	Bacterial Biotransformation [10]	Bacterial Biotransformation [11]	Bacterial Biotransformation (Esterase)	Bacterial Biotransformation [12]	Bacterial Biotransformation [13]	SMILES	Bacterial Biotransformation [14]
Compound metabolized	Compound metabolized	Compound metabolized	Compound metabolized	Compound metabolized	Compound NOT metabolized	Compound metabolized	Compound metabolized	Compound NOT metabolized	Compound metabolized	Compound NOT metabolized	Compound metabolized	Compound metabolized	Compound metabolized	CC(=O)Nc1ccc(OC(C)=O)cc1 [DIACETAMATE]	
Compound metabolized	Compound metabolized	Compound metabolized	Compound metabolized	Compound metabolized	Compound NOT metabolized	Compound metabolized	Compound metabolized	Compound NOT metabolized	Compound metabolized	Compound NOT metabolized	Compound metabolized	Compound metabolized	Compound metabolized	CC(=O)Oc1ccc(C(c2ccc(OC(C)=O)cc2)c2ccccn2)cc1 [BISACODYL]	

SMILES	Bacterial Biotransformation [1]	Bacterial Biotransformation [2]	Bacterial Biotransformation [3]	Bacterial Biotransformation [4]	Bacterial Biotransformation [5]	Bacterial Biotransformation [6]	Bacterial Biotransformation [7]	Bacterial Biotransformation [8]	Bacterial Biotransformation [9]	Bacterial Biotransformation [10]	Bacterial Biotransformation [11]	Bacterial Biotransformation (Esterase)	Bacterial Biotransformation [12]	Bacterial Biotransformation [13]	Bacterial Biotransformation [14]
C[C@@H]1CC[C@H]2[C@@H](C)C(=O)O[C@@H]3O[C@@]4(C)CC[C@@H]1[C@]32OO4 [ARTEMISININ]	Compound metabolized	Compound metabolized	Compound metabolized	Compound metabolized	Compound metabolized	Compound NOT metabolized	Compound NOT metabolized	Compound NOT metabolized	Compound NOT metabolized	Compound NOT metabolized	Compound NOT metabolized	Compound NOT metabolized	Compound metabolized	Compound metabolized	Compound metabolized
